Experimental findings from US10301295B2, “Herbicidal compounds” (Syngenta Participations AG, priority 2014, dated 2019) are described below.

Like-named read-outs stand apart in the source and are kept apart here.

What all share (format): in vivo
Assay [1] has as its system Alopecurus myosuroides (ALOMY). Description: Glasshouse assay for herbicidal activity, pre-/post-emergence (percentage phytotoxicity). To be noted: Alopecurus myosuroides, Rate 250 g/ha, 100%=total damage, 0%=no damage. In short, it runs like this:
(§1)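 Pre- and post-emergence treatments were applied to potted plants at 1 and ~12 days after sowing respectively. Percentage phytotoxicity was judged visually 20 or 15 days later.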

Another assay deals with Avena fatua (AVEFA). Described as above. To be noted: Avena fatua, Rate 250 g/ha, 100%=total damage, 0%=no damage. The method, boiled down: as §1
In assay [2] the test system is Echinochloa crus-galli (ECHCG). The description is as above. To be noted: Echinochloa crus-galli, Rate 250 g/ha, 100%=total damage, 0%=no damage. In short, it runs like this: as §1
The test system of a further assay is Lolium perenne (LOLPE). Described as above. The settings on record: Lolium perenne, Rate 250 g/ha, 100%=total damage, 0%=no damage. In short, it runs like this:
as §1

In another assay the test system is wheat. Kind of assay: Post-emergence herbicidal activity against cereal crops (wheat) +/- safener, crop selectivity. To be noted: 100%=total damage to plant, 0%=no damage; for Post-emergence herbicidal activity against wheat (percentage phytotoxicity), +CQC: 250 g/ha, plus safener cloquintocet-mexyl (CQC) applied at 50 g/ha; for percent phytotoxicity (crop damage) to wheat at 250 g/ha: Triticum aestivum, 360 h, without safener, read-out: Post-emergence herbicidal activity against wheat (percentage phytotoxicity), Wheat - CQC. How it is done: Seeds of a variety of monocotyledonous and dicotyledonous test plants are sown in standard soil in pots. The plants are cultivated for one day (for pre-emergence) or for about 12 days (for post-emergence) under controlled conditions in a glasshouse (warm climate species at 24/18° C., cool climate species at 20/16° C., both at day/night; 16 hours light; 65% humidity). The test plants are then grown on, in a glasshouse (greenhouse) under controlled conditions (warm climate species at 24/18° C., cool climate species at 20/16° C., both at day/night; 16 hours light; 65% humidity) and are watered twice daily. 15 days after application of the test herbicide (15DAA) (for post-emergence), and 20 days after application of the test herbicide (20DAA) (for pre-emergence), the test plants are evaluated visually, and an assessed percentage phytotoxicity score is given for each herbicidal application on each plant species (with 100%=total damage to plant; 0%=no damage to plant).

[3] abbreviates: 360 h, post-emergence, visual assessment 15 DAA, read-out: Post-emergence herbicidal activity (percentage phytotoxicity), ALOMY POST.
[4] abbreviates: 480 h, pre-emergence, visual assessment 20 DAA, read-out: Pre-emergence herbicidal activity (percentage phytotoxicity), ALOMY PRE.
The mark [5] stands for this setting: post-emergence, 360 h, post-emergence, visual assessment 15 DAA, read-out: Post-emergence herbicidal activity (percentage phytotoxicity), AVEFA POST.
The mark [6] stands for this setting: pre-emergence, 480 h, pre-emergence, visual assessment 20 DAA, read-out: Pre-emergence herbicidal activity (percentage phytotoxicity), AVEFA PRE.
Where [7] appears, read: post-emergence, 360 h, post-emergence, visual assessment 15 DAA, read-out: Post-emergence herbicidal activity (percentage phytotoxicity), ECHCG POST.
Where [8] appears, read: pre-emergence, 480 h, pre-emergence, visual assessment 20 DAA, read-out: Pre-emergence herbicidal activity (percentage phytotoxicity), ECHCG PRE.
[9] abbreviates: post-emergence, 360 h, post-emergence, visual assessment 15 DAA, read-out: Post-emergence herbicidal activity (percentage phytotoxicity), LOLPE POST.
[10] abbreviates: pre-emergence, 480 h, pre-emergence, visual assessment 20 DAA, read-out: Pre-emergence herbicidal activity (percentage phytotoxicity), LOLPE PRE.

As for `Cc1cc(-c2ncccc2F)cc(C)c1C1C(=O)CC(CCNC(=O)Nc2ccccn2)C1=O.Cl` (stereo not drawn) [Compound A24], the pest or weed control at 250 g/ha in assay [1] (setting [3]) was 60%; in assay [1] (setting [4]), 10%; with Avena fatua (AVEFA) (setting [5]), 100%; in the assay with Avena fatua (AVEFA) (setting [6]) it was 70%; in assay [2] (setting [7]), 100%; in assay [2] (setting [8]), 90%. In addition, the pest or weed control at 250 g/ha is 90% in the assay with Lolium perenne (LOLPE) (setting [9]) and 80% in the assay on Lolium perenne (LOLPE) (setting [10]). In addition, the “Post-emergence herbicidal activity against wheat (percentage phytotoxicity), +CQC” value with wheat is on record as 70%. Also, the percent phytotoxicity (crop damage) to wheat at 250 g/ha in the assay with wheat is 80%.

`Cc1cc(C)c(C2C(=O)CC(CCNC(N)=O)C2=O)c(C)c1` (stereo not drawn) [Compound A6]: the pest or weed control at 250 g/ha in assay [1] (setting [3]) stood at 70%; in assay [1] (setting [4]) it was 30%; in the assay on Avena fatua (AVEFA) (setting [5]), 90%; with Avena fatua (AVEFA) (setting [6]), 0%; in assay [2] (setting [7]), 100%; in assay [2] (setting [8]), 90%. Further, the figures for the pest or weed control at 250 g/ha in the assay on Lolium perenne (LOLPE) (setting [9]) and with Lolium perenne (LOLPE) (setting [10]) were 90% and 80%, respectively. In addition, the “Post-emergence herbicidal activity against wheat (percentage phytotoxicity), +CQC” value with wheat was determined as 10%. In addition, in the assay on wheat, the percent phytotoxicity (crop damage) to wheat at 250 g/ha stood at 10%.

Regarding `Cc1cc(C)c(C2C(=O)CC(CCNC(=O)NO)C2=O)c(C)c1` (stereo not drawn) [Compound A26], the pest or weed control at 250 g/ha in assay [1] (setting [3]) amounted to 10%; in assay [1] (setting [4]) it was 0%; in the assay with Avena fatua (AVEFA) (setting [5]) it was 0%; with Avena fatua (AVEFA) (setting [6]) it was 0%; in assay [2] (setting [7]) it was 10%; in assay [2] (setting [8]), 0%. Also, the pest or weed control at 250 g/ha in the assay on Lolium perenne (LOLPE) (setting [9]) was 40%; in the assay with Lolium perenne (LOLPE) (setting [10]), 0%. The “Post-emergence herbicidal activity against wheat (percentage phytotoxicity), +CQC” value in the assay on wheat is listed as 10%. Also, in the assay on wheat, the percent phytotoxicity (crop damage) to wheat at 250 g/ha was found to be 0%.

`Cc1cc(-c2ncc(Cl)cc2F)cc(C)c1C1C(=O)CC(CCNC(=O)Nc2ccccn2)C1=O` (stereo not drawn) [Compound A19]: the pest or weed control at 250 g/ha in assay [1] (setting [3]) is 90%; in assay [1] (setting [4]), 70%; in the assay with Avena fatua (AVEFA) (setting [5]), 100%; with Avena fatua (AVEFA) (setting [6]), 90%; in assay [2] (setting [7]), 100%; in assay [2] (setting [8]) it was 80%. The pest or weed control at 250 g/ha was 100% in the assay with Lolium perenne (LOLPE) (setting [9]) and 80% with Lolium perenne (LOLPE) (setting [10]). In the assay on wheat, the “Post-emergence herbicidal activity against wheat (percentage phytotoxicity), +CQC” value stood at 80%. Besides, the percent phytotoxicity (crop damage) to wheat at 250 g/ha in the assay on wheat worked out at 80%.

Consider `Cc1cc(C)c(C2C(=O)CC(CCNS(=O)(=O)c3ccc(F)cc3)C2=O)c(C)c1` (stereo not drawn) [Compound A73], for which the pest or weed control at 250 g/ha in assay [1] (setting [3]) is 40%; in assay [1] (setting [4]), 70%; in the assay with Avena fatua (AVEFA) (setting [5]), 60%; with Avena fatua (AVEFA) (setting [6]), 0%; in assay [2] (setting [7]) it was 30%; in assay [2] (setting [8]) it was 30%. The pest or weed control at 250 g/ha with Lolium perenne (LOLPE) (setting [9]) stood at 60%; in the assay on Lolium perenne (LOLPE) (setting [10]) it was 70%. In addition, the “Post-emergence herbicidal activity against wheat (percentage phytotoxicity), +CQC” value with wheat is listed as 10%. In addition, in the assay on wheat, the percent phytotoxicity (crop damage) to wheat at 250 g/ha was 0%.

Turning to `Cc1cc(C)c(C2C(=O)CC(CCNc3nc4ccc(Cl)cc4o3)C2=O)c(C)c1.Cl` (stereo not drawn) [Compound A35], the pest or weed control at 250 g/ha in assay [1] (setting [3]) came to 90%; in assay [1] (setting [4]), 70%; in the assay on Avena fatua (AVEFA) (setting [5]), 70%; in the assay on Avena fatua (AVEFA) (setting [6]) it was 60%; in assay [2] (setting [7]), 100%; in assay [2] (setting [8]), 80%. The pest or weed control at 250 g/ha in the assay on Lolium perenne (LOLPE) (setting [9]) and in the assay with Lolium perenne (LOLPE) (setting [10]) was 100% each time. Also, the “Post-emergence herbicidal activity against wheat (percentage phytotoxicity), +CQC” value with wheat is listed as 60%. Also, in the assay on wheat, the percent phytotoxicity (crop damage) to wheat at 250 g/ha came to 80%.

Take `Cc1cc(-n2cc(Cl)cn2)cc(C)c1C1C(=O)CC(CCNC(=O)Nc2ncccn2)C1=O.Cl` (stereo not drawn) [Compound A32]: the pest or weed control at 250 g/ha in assay [1] (setting [3]) is 80%; in assay [1] (setting [4]), 70%; in the assay on Avena fatua (AVEFA) (setting [5]), 100%; in the assay with Avena fatua (AVEFA) (setting [6]), 50%; in assay [2] (setting [7]), 100%; in assay [2] (setting [8]) it was 80%. The pest or weed control at 250 g/ha in the assay on Lolium perenne (LOLPE) (setting [9]) and in the assay on Lolium perenne (LOLPE) (setting [10]) was 60% throughout. Also, the “Post-emergence herbicidal activity against wheat (percentage phytotoxicity), +CQC” value with wheat stood at 10%. Further, in the assay with wheat, the percent phytotoxicity (crop damage) to wheat at 250 g/ha was found to be 60%.

On to `Cc1cc(C)c(C2C(=O)CC(CCNC(=O)NC(=O)c3ccccn3)C2=O)c(C)c1` (stereo not drawn) [Compound A1, N-[2-[2,4-dioxo-3-(2,4,6-trimethylphenyl)cyclopentyl]ethylcarbamoyl]pyridine-2-carboxamide], for which the pest or weed control at 250 g/ha in assay [1] (setting [3]) is 90%; in assay [1] (setting [4]) it was 80%; in the assay on Avena fatua (AVEFA) (setting [5]), 90%; with Avena fatua (AVEFA) (setting [6]), 60%; in assay [2] (setting [7]), 80%; in assay [2] (setting [8]), 100%. Further, the pest or weed control at 250 g/ha in the assay with Lolium perenne (LOLPE) (setting [9]) was 90%; in the assay with Lolium perenne (LOLPE) (setting [10]), 100%. For the same compound, the “Post-emergence herbicidal activity against wheat (percentage phytotoxicity), +CQC” value in the assay on wheat was 20%. Besides, the percent phytotoxicity (crop damage) to wheat at 250 g/ha with wheat was found to be 80%.

With `Cc1cc(C)c(C2C(=O)CC(CCNS(=O)(=O)c3ccccc3C)C2=O)c(C)c1` (stereo not drawn) [Compound A87], the pest or weed control at 250 g/ha in assay [1] (setting [3]) was 0%; in assay [1] (setting [4]), 0%; in the assay on Avena fatua (AVEFA) (setting [5]), 50%; in the assay with Avena fatua (AVEFA) (setting [6]), 0%; in assay [2] (setting [7]), 0%; in assay [2] (setting [8]), 30%. The values for the pest or weed control at 250 g/ha in the assay on Lolium perenne (LOLPE) (setting [9]) and with Lolium perenne (LOLPE) (setting [10]) were 0% and 70%, respectively. The “Post-emergence herbicidal activity against wheat (percentage phytotoxicity), +CQC” value with wheat was 0%. Besides, in the assay on wheat, the percent phytotoxicity (crop damage) to wheat at 250 g/ha was found to be 20%.

For the compound `Cc1cc(C)c(C2C(=O)CC(CCNS(=O)(=O)c3ccccc3C(F)(F)F)C2=O)c(C)c1` (stereo not drawn) [Compound A86], the pest or weed control at 250 g/ha came to 50% in assay [1] (setting [3]); 20% in assay [1] (setting [4]); 0% in the assay on Avena fatua (AVEFA) (setting [5]); 20% in the assay with Avena fatua (AVEFA) (setting [6]); 30% in assay [2] (setting [7]); 60% in assay [2] (setting [8]). Also, the results for the pest or weed control at 250 g/ha in the assay with Lolium perenne (LOLPE) (setting [9]) and in the assay with Lolium perenne (LOLPE) (setting [10]) were 30% and 60%, respectively. In addition, the “Post-emergence herbicidal activity against wheat (percentage phytotoxicity), +CQC” value in the assay on wheat worked out at 0%. Further, in the assay with wheat, the percent phytotoxicity (crop damage) to wheat at 250 g/ha came out at 20%.

As to `Cc1cc(C)c(C2C(=O)CC(CCNC(=O)Nc3cc(C(C)(C)C)on3)C2=O)c(C)c1` (stereo not drawn) [Compound A15], the pest or weed control at 250 g/ha in assay [1] (setting [3]) was 60%; in assay [1] (setting [4]) it was 70%; with Avena fatua (AVEFA) (setting [5]) it was 50%; in the assay on Avena fatua (AVEFA) (setting [6]), 50%; in assay [2] (setting [7]), 30%; in assay [2] (setting [8]) it was 70%. Further, the pest or weed control at 250 g/ha in the assay with Lolium perenne (LOLPE) (setting [9]) and in the assay on Lolium perenne (LOLPE) (setting [10]) was 70% in each case. Besides, the “Post-emergence herbicidal activity against wheat (percentage phytotoxicity), +CQC” value in the assay with wheat is 30%. In addition, the percent phytotoxicity (crop damage) to wheat at 250 g/ha with wheat was found to be 40%.

For `Cc1cc(C)c(C2C(=O)CC(CCNC(=O)N(C)c3ccccc3)C2=O)c(C)c1` (stereo not drawn) [Compound A8], the pest or weed control at 250 g/ha was 80% in assay [1] (setting [3]); 70% in assay [1] (setting [4]); 90% with Avena fatua (AVEFA) (setting [5]); 90% in the assay on Avena fatua (AVEFA) (setting [6]); 80% in assay [2] (setting [7]); 90% in assay [2] (setting [8]). Besides, the pest or weed control at 250 g/ha in the assay with Lolium perenne (LOLPE) (setting [9]) and in the assay with Lolium perenne (LOLPE) (setting [10]) was 90% throughout. Moreover, in the assay on wheat, the “Post-emergence herbicidal activity against wheat (percentage phytotoxicity), +CQC” value was 10%. Besides, the percent phytotoxicity (crop damage) to wheat at 250 g/ha in the assay with wheat stood at 70%.
